In PubChem BioAssay AID2792 (Sanford-Burnham Center for Chemical Genomics, 2010):
Activity calls are given as the source filed them. How the calls were made is not given here.

Test system: NF-kappaB luciferase reporter cells, PMA/ionomycin induced
Assay: inhibitors of PMA/ionomycin-induced NF-kB reporter, SAR follow-up, cell-based, PMA/ionomycin inducer, luciferase, set 2 (AID 2792)

IC50, inactive:
Cn1c(=O)[nH]c(=O)c2c1nc([N+](=O)[O-])n2Cc1ccccc1 > 25 µM, CCCn1c(SCCc2ccccc2)nc2c1c(=O)[nH]c(=O)n2C > 25 µM, Nc1nc2ccccc2n1CCOc1ccc(Cl)cc1 > 25 µM, C/C=C/Cn1c(SCc2ccccc2)nc2c1c(=O)[nH]c(=O)n2C > 25 µM, C/C=C/Cn1c(SCCCc2ccccc2)nc2c1c(=O)[nH]c(=O)n2C > 25 µM, C=CCn1c(SCCCc2ccccc2)nc2c1c(=O)[nH]c(=O)n2C > 25 µM, CC(C)n1c(SCCCc2ccccc2)nc2c1c(=O)[nH]c(=O)n2C > 25 µM, C/C(Cl)=C\Cn1c(NCCc2ccccc2)nc2c1c(=O)n(C)c(=O)n2C > 25 µM, CCCCCn1c(SCCc2ccccc2)nc2c1c(=O)[nH]c(=O)n2C > 25 µM, COCCn1c(SCCCc2ccccc2)nc2c1c(=O)[nH]c(=O)n2C > 25 µM, C/C=C/Cn1c(SCc2ccc(Cl)cc2)nc2c1c(=O)[nH]c(=O)n2C > 25 µM, CC(C)Sc1nc2c(c(=O)[nH]c(=O)n2C)n1Cc1ccccc1 > 25 µM, CCCCn1c(SCC(=O)Nc2nnc(CC)s2)nc2c1c(=O)n(C)c(=O)n2C > 25 µM, CCCCn1c(SCC(=O)c2ccccc2)nc2c1c(=O)[nH]c(=O)n2C > 25 µM
